The source of these data is patent US20160297830A1, “NOVEL COMPOUNDS USEFUL FOR THE TREATMENT OF BACTERIAL INFECTIOUS DISEASES” (GALAPAGOS NV, priority 2013, published 2016).

The term IC50 denotes the concentration that inhibits the measured activity by half.

One test has as its system S. aureus Sa1 ATCC 13709. Put plainly: microbe, parasite or virus in culture. The test is classed as cell-based. The note with it: Staphylococcus aureus.
For test [1], the system named is E. coli Ec113 efflux pump KO. Put plainly: microbe, parasite or virus in culture. Type of test: cell-based. The note with it: Escherichia coli, read-out: MIC Ec113 efflux pump KO.
Test [2] has as its system S. aureus Sa26 ATCC 25923. Briefly: Antibacterial activity assay (MIC), S. aureus Sa26. Type of test: cell-based. The settings on record: Staphylococcus aureus.
In test [3] the test system is H. influenza Hi10 clinical strain. Briefly: organism not typed. The test is classed as cell-based. The note with it: read-out: MIC Hi10.
A further test deals with E. coli Ec1 ATCC 25922. Briefly: Antibacterial activity assay (MIC), E. coli Ec1. The test is classed as cell-based. The settings on record: Escherichia coli.
In test [4] the test system is S. aureus Sa2 clinical strain NCIMB 41953, MRSA. Put plainly: microbe, parasite or virus in culture. Type of test: cell-based. The settings on record: Staphylococcus aureus, read-out: MIC Sa2.
The test system of test [5] is H. influenza Hi3 ATCC 31517. Put plainly: organism not typed. Type of test: cell-based. The settings on record: read-out: MIC Hi3.
The test system of the next test is S. aureus Sa4 NCTC 6571. Put plainly: Antibacterial activity assay (MIC), S. aureus Sa4. The test is classed as cell-based. The note with it: Staphylococcus aureus.
In test [6] the test system is H. influenza Hi47 clinical strain, Ampicillin Resistant. Briefly: organism not typed. Type of test: cell-based. The settings on record: read-out: MIC Hi47.
Test [7] concerns H. influenza Hi106 ATCC 51907. Briefly: organism not typed. The test is classed as cell-based. The settings on record: read-out: MIC Hi106.
The target in test [8] is DNA Polymerase IIIα (DnaE) from Staphylococcus aureus (Staphylococcus aureus, UniProt Q6GG04). Briefly: biochemical.
Chain of DNA Polymerase IIIα (DnaE) from Staphylococcus aureus (Q6GG04 1-1022): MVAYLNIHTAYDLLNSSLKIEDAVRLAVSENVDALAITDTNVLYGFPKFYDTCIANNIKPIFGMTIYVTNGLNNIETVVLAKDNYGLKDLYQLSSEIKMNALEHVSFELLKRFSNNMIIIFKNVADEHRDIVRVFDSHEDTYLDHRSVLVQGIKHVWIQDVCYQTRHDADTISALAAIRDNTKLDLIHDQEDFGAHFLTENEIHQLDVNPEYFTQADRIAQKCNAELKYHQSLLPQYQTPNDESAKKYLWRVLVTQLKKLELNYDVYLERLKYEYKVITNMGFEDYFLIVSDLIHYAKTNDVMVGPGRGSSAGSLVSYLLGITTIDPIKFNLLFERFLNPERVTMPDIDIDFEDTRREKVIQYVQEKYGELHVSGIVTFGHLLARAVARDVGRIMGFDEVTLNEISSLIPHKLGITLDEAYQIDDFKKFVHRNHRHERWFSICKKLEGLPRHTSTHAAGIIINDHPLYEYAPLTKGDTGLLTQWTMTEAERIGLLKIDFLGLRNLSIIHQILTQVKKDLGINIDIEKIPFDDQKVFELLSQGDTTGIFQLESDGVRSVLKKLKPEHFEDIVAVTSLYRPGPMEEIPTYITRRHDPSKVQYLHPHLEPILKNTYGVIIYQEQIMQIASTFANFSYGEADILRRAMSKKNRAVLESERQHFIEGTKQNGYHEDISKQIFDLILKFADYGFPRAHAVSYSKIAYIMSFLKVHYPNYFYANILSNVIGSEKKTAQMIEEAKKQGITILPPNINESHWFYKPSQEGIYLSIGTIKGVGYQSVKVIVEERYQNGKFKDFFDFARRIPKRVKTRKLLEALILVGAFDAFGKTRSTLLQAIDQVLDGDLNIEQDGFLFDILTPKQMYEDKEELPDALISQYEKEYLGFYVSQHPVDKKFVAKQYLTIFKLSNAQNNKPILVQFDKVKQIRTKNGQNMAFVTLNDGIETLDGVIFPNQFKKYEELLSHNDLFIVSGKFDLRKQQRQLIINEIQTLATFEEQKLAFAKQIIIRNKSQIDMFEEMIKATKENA
Test [9] has as its system E. coli Ec50 efflux pump KO. Briefly: microbe, parasite or virus in culture. Type of test: cell-based. The settings on record: Escherichia coli, read-out: MIC Ec50 efflux pump KO.
The next test addresses DNA III Polymerase E (Escherichia coli, UniProt P10443). Briefly: In vitro activity against DNA III Polymerase E, E. coli. The test is classed as biochemical. How it is done:
A radioactive filterplate assay was used to assess inhibitory activity of compounds on DNA Polymerase IIIα. Five μL of a dilution series of compound, starting from 100 μM highest concentration, 1/5 dilution, was added to the wells of a 96 well plate. Recombinant enzyme was diluted to 0.47 μg/mL in a buffer containing 20 mM Tris pH7.5, 8 mM DTT, 10 mM MgOAc, 0.05% CHAPS and 10 μL thereof was added to the compound dilutions. The reaction was started with the addition of 10 μL substrate in the same buffer, containing activated calf thymus DNA (Sigma, D4522), dATP, dGTP, dCTP, dTTP (Invitrogen) and [α-33P]-dTTP (Perkin Elmer, NEG605H001) at a concentration of 62.5 μg/mL, 50 nM and 7.5 μCi/mL respectively. The mixture was incubated at 30° C. for 120 minutes and terminated by addition of phosphoric acid. Samples were transferred to filter plates and incorporated radioactivity was measured by the Topcount. Data were converted to percent inhibition with respect to positive and negative controls. IC50 values were calculated using Graph Prism™ software.

[10] abbreviates: ATCC25923, read-out: MIC Sa26 + 10% SH.
The mark [11] stands for this setting: ATCC25923, read-out: MIC Sa26 + 50% SH.
Setting [12] is: DNA polymerase III, E. coli, read-out: IC50 semiquantitative scoring, E. coli.

Converted amounts (≈) assume the structure as drawn. Like-named read-outs stand apart in the source and are kept apart here.

Chain of DNA III Polymerase E (P10443 whole entry): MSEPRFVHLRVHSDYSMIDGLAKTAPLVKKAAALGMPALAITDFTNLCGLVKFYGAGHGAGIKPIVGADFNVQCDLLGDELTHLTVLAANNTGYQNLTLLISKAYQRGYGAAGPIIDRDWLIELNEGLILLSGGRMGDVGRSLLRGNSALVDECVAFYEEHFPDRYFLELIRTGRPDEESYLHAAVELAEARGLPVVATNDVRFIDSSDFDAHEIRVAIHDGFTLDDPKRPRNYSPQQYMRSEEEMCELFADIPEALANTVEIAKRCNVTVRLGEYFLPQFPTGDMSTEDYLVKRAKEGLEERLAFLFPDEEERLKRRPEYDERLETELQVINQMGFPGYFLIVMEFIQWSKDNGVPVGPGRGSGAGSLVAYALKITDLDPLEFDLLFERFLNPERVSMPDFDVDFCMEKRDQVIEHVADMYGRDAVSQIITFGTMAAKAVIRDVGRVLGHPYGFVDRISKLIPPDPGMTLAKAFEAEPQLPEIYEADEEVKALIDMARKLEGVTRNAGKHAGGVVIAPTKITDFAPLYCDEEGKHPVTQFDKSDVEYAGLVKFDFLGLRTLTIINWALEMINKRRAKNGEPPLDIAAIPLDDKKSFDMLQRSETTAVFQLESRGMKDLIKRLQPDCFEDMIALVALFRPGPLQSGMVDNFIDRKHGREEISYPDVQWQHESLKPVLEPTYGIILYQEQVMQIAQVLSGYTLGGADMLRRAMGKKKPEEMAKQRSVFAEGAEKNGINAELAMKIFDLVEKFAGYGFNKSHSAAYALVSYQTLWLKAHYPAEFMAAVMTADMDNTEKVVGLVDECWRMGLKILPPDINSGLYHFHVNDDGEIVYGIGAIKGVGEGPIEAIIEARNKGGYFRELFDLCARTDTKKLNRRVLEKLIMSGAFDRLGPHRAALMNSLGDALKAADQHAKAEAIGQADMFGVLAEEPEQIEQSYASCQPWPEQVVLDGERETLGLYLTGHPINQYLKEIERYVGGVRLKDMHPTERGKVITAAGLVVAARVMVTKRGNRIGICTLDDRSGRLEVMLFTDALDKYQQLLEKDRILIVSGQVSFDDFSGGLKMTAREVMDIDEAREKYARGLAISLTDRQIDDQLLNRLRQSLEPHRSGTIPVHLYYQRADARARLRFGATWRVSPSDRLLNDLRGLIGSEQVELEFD

Turning to `COCC(=O)[C@H]1OC(=O)[C@H](COC)[C@H]2C=C[C@H]3[C@H]4O[C@]2(/C(C)=C/[C@H]1C)[C@@H]3[C@H](O)[C@@H](COC)[C@H]4OC(=O)c1ccc[nH]1` [Compound 20, 18-Deoxy-18-oxo-8-O-1H-pyrrole-2′-carbonylbranimycin], the MIC with S. aureus Sa1 ATCC 13709 (ATCC13709, read-out: MIC Sa1) is 8 µg/mL (≈ 13.9 µM); in [1] it was 16 µg/mL (≈ 27.9 µM); in [2] (ATCC25923, read-out: MIC Sa26), 8 µg/mL (≈ 13.9 µM); in test [2] (setting [10]), 16 µg/mL; in [2] (setting [11]) it was 32 µg/mL; in test [3] it was greater than 64 µg/mL. The MIC was greater than 64 µg/mL in the test on E. coli Ec1 ATCC 25922 (ATCC25922, read-out: MIC Ec1); 2 µg/mL (≈ 3.49 µM) in test [4]; greater than 64 µg/mL in test [5]; 4 µg/mL (≈ 6.97 µM) in the test with S. aureus Sa4 NCTC 6571 (NCTC6571, read-out: MIC Sa4); greater than 64 µg/mL in test [6]; greater than 64 µg/mL in test [7]. The MIC in test [9] was greater than 64 µg/mL. Also, the IC50 in test [8] is 0.00174 to 1.74 µM; on DNA III Polymerase E (setting [12]), greater than 17.4 µM.

`COC[C@@H]1[C@@H](O)[C@@H]2[C@H]3C=C[C@@H]4[C@@H](COC)C(=O)O[C@H]([C@H](O)COC)[C@H](C)/C=C(\C)[C@@]24O[C@H]3[C@@H]1OC(=O)c1cc[nH]n1` [Compound 10, 8-O-1H-Pyrazole-3′-carbonylbranimycin]: the MIC is 16 µg/mL (≈ 27.7 µM) with S. aureus Sa1 ATCC 13709 (ATCC13709, S. aureus Sa1 ATCC 13709, sensitive strain, Mueller-Hinton Broth, 37° C., read-out: MIC Sa1); 16 µg/mL (≈ 27.7 µM) in test [1]; 16 µg/mL in test [2] (ATCC25923, read-out: MIC Sa26 + 10% SH, S. aureus Sa26 + 10% SH); 8 µg/mL in [2] (ATCC25923, read-out: MIC Sa26 + 50% SH, S. aureus Sa26 + 50% SH); 16 µg/mL (≈ 27.7 µM) in test [2] (ATCC25923, S. aureus Sa26 ATCC 25923, sensitive strain, Mueller-Hinton Broth, 37° C., read-out: MIC Sa26); greater than 64 µg/mL in test [3]. The MIC with E. coli Ec1 ATCC 25922 (ATCC25922, E. coli Ec1 ATCC 25922, sensitive strain, read-out: MIC Ec1) is greater than 64 µg/mL; in test [4], 16 µg/mL (≈ 27.7 µM); in [5], greater than 64 µg/mL; with S. aureus Sa4 NCTC 6571 (NCTC6571, S. aureus Sa4 NCTC 6571, sensitive strain, read-out: MIC Sa4) it was 16 µg/mL (≈ 27.7 µM); in test [6] it was greater than 64 µg/mL; in test [7], greater than 64 µg/mL. Further, in test [9], the MIC is greater than 64 µg/mL. The IC50 in test [8] was 0.00173 to 1.73 µM; at DNA III Polymerase E, greater than 17.3 µM.

For `COC[C@@H]1[C@@H](O)[C@@H]2[C@H]3C=C[C@@H]4[C@@H](COC)C(=O)O[C@H]([C@H](O)COC)[C@H](C)/C=C(\C)[C@@]24O[C@H]3[C@@H]1OC(=O)c1cnco1` [Compound 14, 8-O-Oxazole-5′ carbonylbranimycin], the MIC was greater than 64 µg/mL in the test on S. aureus Sa1 ATCC 13709 (ATCC13709, read-out: MIC Sa1); 16 µg/mL (≈ 27.7 µM) in test [1]; greater than 64 µg/mL in [2] (ATCC25923, read-out: MIC Sa26); greater than 64 µg/mL in test [2] (setting [10]); greater than 64 µg/mL in test [2] (setting [11]); greater than 64 µg/mL in test [3]. The MIC with E. coli Ec1 ATCC 25922 (ATCC25922, read-out: MIC Ec1) is greater than 64 µg/mL; in test [4], greater than 64 µg/mL; in test [5] it was greater than 64 µg/mL; with S. aureus Sa4 NCTC 6571 (NCTC6571, read-out: MIC Sa4) it was greater than 64 µg/mL; in test [6] it was greater than 64 µg/mL; in test [7], greater than 64 µg/mL. The MIC in test [9] is greater than 64 µg/mL. The values for the half-inhibitory concentration (IC50) (in test [8]; on DNA III Polymerase E (setting [12])) were 1.73 to 17.3 µM and greater than 17.3 µM, respectively.

As for `COC[C@H]1[C@@H](O)[C@@H]2O[C@@]34/C(C)=C/[C@@H](C)[C@@H]([C@H](O)COC)OC(=O)[C@H](COC)[C@H]3CC[C@@H]2[C@H]4[C@@H]1O` [Compound 15, 4,5-Dihydro-branimycin], the MIC is greater than 64 µg/mL in the test with S. aureus Sa1 ATCC 13709 (ATCC13709, read-out: MIC Sa1); 16 µg/mL (≈ 33 µM) in test [1]; greater than 64 µg/mL in [2] (ATCC25923, read-out: MIC Sa26); greater than 64 µg/mL in test [2] (setting [10]); greater than 64 µg/mL in [2] (setting [11]); greater than 64 µg/mL in [3]. In addition, the MIC is greater than 64 µg/mL in the test with E. coli Ec1 ATCC 25922 (ATCC25922, read-out: MIC Ec1); greater than 64 µg/mL in test [4]; greater than 64 µg/mL in test [5]; greater than 64 µg/mL with S. aureus Sa4 NCTC 6571 (NCTC6571, read-out: MIC Sa4); greater than 64 µg/mL in test [6]; greater than 64 µg/mL in [7]. The MIC in test [9] was greater than 64 µg/mL. In addition, the IC50 in test [8] (DNA polymerase III, S. aureus, read-out: IC50 semiquantitative scoring, S. aureus) is 2.06 to 20.6 µM; at DNA III Polymerase E, greater than 20.6 µM.
